Test results as given in article PMC9232612, “A phase 1b randomised controlled trial of a glucagon-like peptide-1 and glucagon receptor dual agonist IBI362 (LY3305677) in Chinese patients with type 2 diabetes” (Nature Communications, 2022).
“And” between values parts separate entries of the source, which are not always exact repeats. Identical values can stand only once.

Legend:
Assay type in all cases: in vivo, human
[1] = system: Chinese patients with T2D; test: Change from baseline in heart rate, standard 12-lead electrocardiogram
Description: (§1) Primary outcomes of the study were the safety and tolerability of IBI362. Safety assessment included adverse events, physical examinations, laboratory tests (including lipase, amylase and calcitonin level measures), vital signs and 12-lead electrocardiogram. Adverse events were categorized according to the Medical Dictionary for Regulatory Activities system organ classes (SOCs) and preferred terms. Treatment-emergent adverse events (TEAEs) were monitored from the time of informed consent to the safety follow-up period. The severity of TEAEs (mild, moderate or severe) and the association between an event and the study drug were assessed by investigators based on pre-specified criteria.
CFB in heart rate (beats/min),
Fig. S1: Change from baseline in heart rate over time.
Data are from standard 12-lead electrocardiogram, measured at 1 hour before each dose in the morning from week 0 to week 11, and 168 hours after the last dose (week 12). Data are plotted as means +/- SD. CFB = change from baseline; SD = standard deviation.Source data are provided as […]
(1 picture or pasted object on this page, not shown here)

[2] = system: Chinese patients with T2D; test: Treatment-emergent adverse events (MedDRA SOC/preferred term), 12-week once-weekly s.c. treatment plus 8-week safety follow-up, phase 1b
Method: The study included a 3-week screening period, a 12-week treatment period and an 8-week safety follow-up period. During the 12-week treatment period, IBI362 or placebo was subcutaneously administered once weekly with one of the three dose-escalation schedules: 1.0–2.0–3.0 mg for the 3.0 mg cohort, 1.5–3.0–4.5 mg for the 4.5 mg cohort and 2.0–4.0–6.0 mg for the 6.0 mg cohort (each dose level administered for 4 weeks). The 6.0 mg cohort started dosing after tolerability evaluation of 1.5 mg dosing in the 4.5 mg cohort. The internal unblinded safety monitoring group was responsible for the safety monitoring. Dulaglutide was subcutaneously administered once weekly at a fixed dose of 1.5 mg. Patients who were on metformin prior to the enrolment of this trial were required to continue their previous dose of metformin throughout the trial. Investigators and authorized study personnel in each centre recorded the study data into the electronic case report forms (eCRFs), which were reviewed and validated by clinical research associates. The data in the eCRFs were submitted to the electronic data capture database.
as §1
Safety analyses were done in the safety population (defined as all patients who received at least one dose of the study treatment). Pharmacokinetic analyses were done in the pharmacokinetic population (defined as all patients who received at least one dose of IBI362 and had at least one valid plasma concentration assessment).

[3] = system: Chinese patients with T2D; test: Homeostatic model assessment of β-cell function (HOMA-β); conditions: for Change from baseline to week 12 in HOMA-β, individual: single patients
Description: Exploratory outcomes included change from baseline in body weight, waist circumference, body-mass index (BMI) and change in homeostatic model assessment of β-cell function (HOMA-β) and insulin resistance (HOMA-IR).

[4] = system: Chinese patients with T2D; test: Alanine aminotransferase and aspartate aminotransferase levels
Description: as §1
CFB in ALT (U/L), mean (SD)
CFB in AST (U/L), mean (SD)
Fig. S2: Change from baseline in ALT and AST levels over time.
a. CFB in ALT levels over time. b. CFB in AST levels over time. Data are plotted as means +/- SD.
ALT = alanine aminotransferase; AST = aspartate aminotransferase; CFB = change from baseline;
SD = standard deviation. Source data are provided as a Source Data file. […]

[5] = system: Chinese patients with T2D; test: Blood pressure (systolic, diastolic); conditions: mean
Description: as §1
Fig. S7: Change from baseline in waist circumference, BMI and blood pressure at week 12. a. CFB in waist circumference at week 12. b. CFB in BMI at week 12. c. CFB in blood pressure at week 12. Data are plotted as means +/- SD. a. IBI362 3.0 mg n = 7; IBI362 4.5 mg n = 5; IBI362 6.0 mg n = 8; Pooled placebo n = 11; Dulaglutide n = 6. b. IBI362 3.0 mg n = 7; IBI362 4.5 mg n = 5; […]
mg n = 6; IBI362 6.0 mg n = 8; Pooled placebo n = 11; Dulaglutide n = 6. BMI = body-mass index; CFB = change from baseline; DBP = diastolic blood pressure; SBP = systolic blood pressure; SD = standard deviation. Source data are provided as a Source Data file.
CFB in BMI at week 12 (kg/m2), […]
at week 12 (mm Hg), mean (SD)
CFB in waist circumference at week 12 (cm), mean (SD) […]

Compound: CC(C)C[C@H](NC(=O)[C@H](CC(C)C)NC(=O)[C@H](Cc1c[nH]c2ccccc12)NC(=O)[C@H](CCC(=O)O)NC(=O)[C@@H](NC(=O)[C@H](Cc1ccccc1)NC(=O)[C@H](CCC(=O)O)NC(=O)[C@H](CCCCNC(=O)COCCOCCNC(=O)COCCOCCNC(=O)CC[C@H](NC(=O)CCCCCCCCCCCCCCCCCCC(=O)O)C(=O)O)NC(=O)[C@H](C)NC(=O)[C@H](CCCCN)NC(=O)[C@H](CCCCN)NC(=O)[C@H](CCC(=O)O)NC(=O)[C@H](CC(=O)O)NC(=O)[C@H](CC(C)C)NC(=O)[C@H](Cc1ccc(O)cc1)NC(=O)[C@H](CCCCN)NC(=O)[C@H](CO)NC(=O)[C@H](Cc1ccc(O)cc1)NC(=O)[C@H](CC(=O)O)NC(=O)[C@H](CO)NC(=O)[C@@H](NC(=O)[C@H](Cc1ccccc1)NC(=O)[C@@H](NC(=O)CNC(=O)[C@H](CCC(N)=O)NC(=O)C(C)(C)NC(=O)[C@@H](N)Cc1c[nH]cn1)[C@@H](C)O)[C@@H](C)O)C(C)C)C(=O)N[C@@H](CCC(=O)O)C(=O)NCC(=O)NCC(=O)N1CCC[C@H]1C(=O)N[C@@H](CO)C(=O)N[C@@H](CO)C(=O)NCC(N)=O [IBI362]
- heart rate, mean change from baseline (bound) ([1]; 3.0 mg cohort): < 10 beats per minute
- heart rate, mean change from baseline (bound) ([1]; 6.0 mg cohort): < 15 beats per minute
- heart rate increase (up to) ([1]; patients receiving IBI362): 10-15 beats per minute
- median time to resolution of gastrointestinal adverse events (diarrhoea, nausea and vomiting) ([2]; 4.5 mg group, 10 events): 3.5 days
- median time to resolution of gastrointestinal adverse events (diarrhoea, nausea and vomiting) ([2]; 6.0 mg group, 11 events): 4 days
- tolerability ([2]; 3.0, 4.5 and 6.0 mg dose-escalation regimens): well tolerated
- Change from baseline to week 12 in HOMA-β, mean ([3]; 3.0 mg cohort, n=7): 9.2%
- Change from baseline to week 12 in HOMA-β, mean ([3]; 4.5 mg cohort, n=5): 26.4%
- Change from baseline to week 12 in HOMA-β, mean ([3]; 6.0 mg cohort, n=8): 21.0%
- Change from baseline to week 12 in HOMA-β, individual ([3]; 3.0 mg cohort, n=7): -8.1% and 15.7% and 23.0% and -3.8% and 14.4% and 16.4% and 6.9%
- Change from baseline to week 12 in HOMA-β, individual ([3]; 4.5 mg cohort, n=5): -9.6% and 82.4% and -0.3% and 47.8% and 11.6%
- Change from baseline to week 12 in HOMA-β, individual ([3]; 6.0 mg cohort, n=8): -6.2% and 6.9% and 72.2% and 5.4% and 33.9% and 27.9% and -1.8% and 29.8%
- Change from baseline in ALT, mean ([4]; week 4, 3.0 mg cohort): 3.76 U/L
- Change from baseline in AST, mean ([4]; week 4, 3.0 mg cohort): 1.13 U/L
- Change from baseline in ALT, mean ([4]; week 4, 4.5 mg cohort): -3.50 U/L
- Change from baseline in AST, mean ([4]; week 4, 4.5 mg cohort): -2.03 U/L
- Change from baseline in ALT, mean ([4]; week 4, 6.0 mg cohort): -7.38 U/L
- Change from baseline in AST, mean ([4]; week 4, 6.0 mg cohort): -2.56 U/L
- Change from baseline in ALT, mean ([4]; week 8, 3.0 mg cohort): -6.34 U/L
- Change from baseline in AST, mean ([4]; week 8, 3.0 mg cohort): -1.20 U/L
- Change from baseline in ALT, mean ([4]; week 8, 4.5 mg cohort): -7.66 U/L
- Change from baseline in AST, mean ([4]; week 8, 4.5 mg cohort): -1.26 U/L
- Change from baseline in ALT, mean ([4]; week 8, 6.0 mg cohort): -8.50 U/L
- Change from baseline in AST, mean ([4]; week 8, 6.0 mg cohort): -3.36 U/L
- Change from baseline in ALT, mean ([4]; week 12, 3.0 mg cohort): -6.34 U/L
- Change from baseline in AST, mean ([4]; week 12, 3.0 mg cohort): -2.49 U/L
- Change from baseline in ALT, mean ([4]; week 12, 4.5 mg cohort): -10.66 U/L
- Change from baseline in AST, mean ([4]; week 12, 4.5 mg cohort): -2.82 U/L
- Change from baseline in ALT, mean ([4]; week 12, 6.0 mg cohort): -8.38 U/L
- Change from baseline in AST, mean ([4]; week 12, 6.0 mg cohort): -4.65 U/L
- Change from baseline to week 12 in blood pressure, diastolic ([5]; IBI362 3.0 mg): -1.4 mm Hg
- Change from baseline to week 12 in blood pressure, systolic ([5]; IBI362 3.0 mg): -8.1 mm Hg
- Change from baseline to week 12 in blood pressure, diastolic ([5]; IBI362 4.5 mg): -5.2 mm Hg
- Change from baseline to week 12 in blood pressure, systolic ([5]; IBI362 4.5 mg): -6.7 mm Hg
- Change from baseline to week 12 in blood pressure, diastolic ([5]; IBI362 6.0 mg): 2.3 mm Hg
- Change from baseline to week 12 in blood pressure, systolic ([5]; IBI362 6.0 mg): -3.3 mm Hg

Compound: Dulaglutide: open-label active reference, subcutaneously once weekly at a fixed dose of 1.5 mg [reference compound]
- heart rate, mean change from baseline (bound) ([1]; 1.5 mg once weekly): < 10 beats per minute
- Infections and infestations (SOC) ([2]; 1.5 mg once weekly, n=6): 0 number of patients (%)
- Upper respiratory tract infection ([2]; 1.5 mg once weekly, n=6): 0 number of patients (%)
- Urinary tract infection ([2]; 1.5 mg once weekly, n=6): 0 number of patients (%)
- Change from baseline to week 12 in HOMA-β, mean ([3]; 1.5 mg once weekly, n=6): 30.9%
- Change from baseline to week 12 in HOMA-β, individual ([3]; 1.5 mg once weekly, n=6): 31.2% and 37.1% and 18.9% and 5.2% and 22.2% and 70.7%
- Change from baseline in ALT, mean ([4]; week 4, 1.5 mg once weekly): -3.70 U/L
- Change from baseline in AST, mean ([4]; week 4, 1.5 mg once weekly): 0.83 U/L
- Change from baseline in ALT, mean ([4]; week 8, 1.5 mg once weekly): -4.33 U/L
- Change from baseline in AST, mean ([4]; week 8, 1.5 mg once weekly): 1.53 U/L
- Change from baseline in ALT, mean ([4]; week 12, 1.5 mg once weekly): -6.92 U/L
- Change from baseline in AST, mean ([4]; week 12, 1.5 mg once weekly): 1.58 U/L
- Change from baseline to week 12 in blood pressure, diastolic ([5]; Dulaglutide group): 4.0 mm Hg
- Change from baseline to week 12 in blood pressure, systolic ([5]; Dulaglutide group): 5.8 mm Hg
